Results from PubChem BioAssay (NCI).
Values joined by “and” are separate entries in the source; they are usually repeats but may differ in a detail not shown here. Equal values may be shown once.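 Cells were grown in 96-well plates and exposed to each compound for 48 hours at five concentrations; endpoints were interpolated linearly between bracketing concentrations, or set to the highest concentration if not reached. GI50 = concentration required for 50% inhibition of growth. TGI: concentration producing complete growth inhibition.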

system: MDA-MB-468 breast; experiment: NCI-60 cell line screen, 48 h

| SMILES | GI50 | TGI |
| --- | --- | --- |
| COc1ccc(Cl)cc1NC(=O)C(Br)C(Br)C(=O)O (stereo not drawn) | 0.567 µM | 2.27 µM |
| C=CC(=O)N[C@H]1CCOC[C@H]1Nc1ncc2cc(-c3c(Cl)c(OC)cc(OC)c3Cl)ccc2n1 | 9.16 µM | 44.7 µM |
| NS(=O)(=O)c1cccc(N=Cc2c(O)[nH]c3ccccc23)c1 | > 25 µM | > 25 µM |
| COc1ccc2c(c1)C(c1ccccc1Cl)=Nc1c(n[nH]c1C)N2 | > 16.8 µM | > 25 µM |
| CN(C)C(=O)c1cc2cnc(Nc3ccc(-c4csc5c(=O)cc(N6CCOCC6)oc45)cc3)nc2n1C1CCCC1 | 0.122 µM | 0.397 µM |
| C=C1C(=O)O[C@H]2[C@H]1CC/C(COC(=O)CSCC(=O)OC/C1=C/CC[C@@]3(C)O[C@H]3[C@H]3OC(=O)C(=C)[C@@H]3CC1)=C\CC[C@@]1(C)O[C@@H]21 | 1.42 µM | 3.5 µM |
| C/C=C/CC(C)C(O)C1C(=O)NC(CC)C(=O)N(C)CC(=O)N(C)C(CC(C)C)C(=O)NC(C(C)C)C(=O)N(C)C(CC(C)C)C(=O)NC(C)C(=O)NC(C)C(=O)N(C)C(CC(C)C)C(=O)N(C)C(CC(C)C)C(=O)N(C)C(C(C)C)C(=O)N1C (stereo not drawn) | 0.872 µM | 6.63 µM |
| CC(C)NC(=O)OCc1c(COC(=O)NC(C)C)c(-c2ccc(Cl)cc2)n2c1CCC2 | 0.928 µM | 2.5 µM |
| O=C(Cc1cccc(OC(F)(F)F)c1)Nc1ccc(CCCCc2nnc(NC(=O)Cc3ccccn3)s2)nn1 | 7.69 µM | 58.5 µM |
| O=Nc1ccc2ccccc2c1O | 13.4 µM | 34.9 µM |
| COc1cccc2c1C(=O)c1c(O)c3c(c(O)c1C2=O)C[C@@](O)(C(=O)CO)C[C@@H]3OC1C[C@H](N)[C@H](O)[C@H](C)O1 (stereo partly drawn) | 0.0253 µM | 0.123 µM |
| C=C1C(=O)O[C@H]2[C@H]1CC/C(COC(=O)NCCc1c[nH]c3ccc(OC)cc13)=C\CC[C@@]1(C)O[C@@H]21 | 1.19 µM | 2.91 µM |
| COc1cc(/C=C2\CN(C)C/C(=C\c3cc(CN4CCCCC4)c(O)c(OC)c3)C2=O)cc(CN2CCCCC2)c1O | 3.79 µM | 14.7 µM |
| Cc1cc(Nc2ncnc3ccc(NC4=NC(C)(C)CO4)cc23)ccc1Oc1ccn2ncnc2c1 | 1.78 µM and 2.18 µM | 12.7 µM and > 10 µM |
| COc1ccccc1/C=N\N=C(N/N=C/c1ccccc1OC)N/N=C/c1ccccc1OC | 3.51 µM | 10.7 µM |
| CCOP(=O)(OCC)OC[C@]12CCC(C)(C)C[C@H]1C1=CC[C@@H]3[C@@]4(C)C/C(=C\c5cccnc5)[C@H](OP(=O)(OCC)OCC)C(C)(C)[C@@H]4CC[C@@]3(C)[C@]1(C)CC2 | 1.12 µM | 2.5 µM |
| O=C(CCl)N1c2ccccc2Sc2ccc3ccccc3c21 | 0.351 µM | 1.46 µM |
| c1cn2cc(-c3ccc4cn[nH]c4c3)nc(Nc3ccc(N4CCOCC4)cc3)c2n1 | 8.59 µM | 32.4 µM |
| CCCCCCCCCCCCSC(=N)N | 6.21 µM | 20.5 µM |
| O=C(Nc1ccc(Cl)c(C(F)(F)F)c1)Nc1ccc2c(ccn2C(=O)c2cccc(F)c2)c1 | 1.83 µM | 4.96 µM |
| Cn1cc(-c2cnc3ccc4ccc(CS(=O)(=O)NCc5ccccn5)cc4c(=O)c3c2)cn1 | 10.9 µM | 29 µM |
| COc1ccc2nc3cc(Cl)ccc3c(NCCCNCCC(C)O)c2c1 (stereo not drawn) | 0.313 µM | 1.78 µM |

| SMILES | GI50 | TGI |
| --- | --- | --- |
| O=c1cc(-c2ccccc2)[nH]n1-c1nc2ccccc2[nH]1 | 4.3 µM | 45.9 µM |
| COc1cc(-c2nc3sc4c(c3c(=O)[nH]2)CCCCCC4)cc(OC)c1OC | 0.676 µM | 3.01 µM |
| O=C(N/N=C/c1ccccc1O)C(=O)Nc1ccc(F)cc1 | 4.41 µM | > 100 µM |
| O=C(Nc1ccccc1O)c1ccc(Oc2cccc(C(=O)Nc3ccccc3O)c2)cc1 | 2.17 µM | 8.16 µM |
| COc1ccc2c(c1)C(=O)/C(=C/c1ncc([N+](=O)[O-])n1C)O2 | 1.7 µM | 4.12 µM |
| CN1CCN(Cc2ccc(NC(=O)c3ccc(C#Cc4c(N)ncc5ccc(F)cc45)cc3)cc2C(F)(F)F)CC1 | 0.998 µM | 1.97 µM |
| O=c1[nH]cnc2[nH]ncc12 | 152 µM | 2680 µM |
| CC(=O)O/N=C1/C(c2c(O)[nH]c3cc(Br)ccc23)=Nc2ccccc21 | 1.64 µM | 3.22 µM |
| COc1ccc(C(=O)c2cc3c(OC)c(OC)c(OC)cc3[nH]2)cc1 | 2.64 µM | > 100 µM |
| C#CC(F)(F)[C@]1(O)CC[C@H]2[C@@H]3CCC4=CC(=O)CCC4=C3[C@@H](c3ccc(C(C)=O)cc3)C[C@@]21C | 7.69 µM | 34.1 µM |
| CSc1ccc2c3c(n(C[C@H](O)CO)c(=O)c2c1)-c1ccccc1C3=O | 1.87 µM | 5.78 µM |
| COC(=O)[C@]12CC[C@@H](C)[C@H](C)[C@@H]1C1=CC[C@@H]3[C@@]4(C)C=C(O)C(=O)[C@@]5(C)COC(=C54)C[C@@]3(C)[C@]1(C)CC2 | 4.88 µM | 19.9 µM |
| CCN1c2ccccc2C(Cl)(c2ccc(N(C)C)cc2)c2ccccc21 | 3.36 µM | 15.5 µM |
| Cc1cc(Cc2cc(C)cc(C(C)(C)C)c2O)c(O)c(C(C)(C)C)c1 | 11.4 µM | 24.2 µM |
| O=C(O)c1cc2cc(OCc3ccccc3)c(OCc3ccccc3)cc2[nH]1 | 17.9 µM | 36.7 µM |
| Cc1c(C)[n+](=O)c(C)c(C)n1[O-] | > 100 µM | > 100 µM |
| N#CCc1ncc(-c2ccc(C(F)(F)F)cc2)c(NC2CCCCCC2)n1 | > 10 µM | > 10 µM |
| O=C(Nc1ccc(Cl)cc1)c1cc(-c2ccc(Cl)cc2)c2sc(=O)[nH]c2n1 | 1.73 µM | 6.62 µM |
| O=C(N/N=C/c1ccc([N+](=O)[O-])cc1)c1ccc2nc(-c3ccc(Cl)cc3)[nH]c2c1 | 1.97 µM | 4.79 µM |
| Cc1cc(C)c(O)c(CN(C)Cc2cc(Cl)cc(Cl)c2O)c1 | 2.83 µM | 11.8 µM |
| Cc1c2c[n+](C(C)C)ccc2c(C)c2c1[nH]c1ccccc12 | 0.312 µM | 1.97 µM |
| NC1=NC(c2ccc(Cl)cc2)C2=C(N1)/C(=C/c1ccc(Cl)cc1)CCC2 (stereo not drawn) | 3.49 µM | 13.9 µM |
